Test systems include MDA-N; SF-295; SK-MEL-28; TK-10; NCI-H460; SK-MEL-5; PC-3; MCF7; SR; SF-268; Malme-3M; UACC-62; SN12C; U-251; NCI-H226; HOP-92; ACHN; MOLT-4; UO-31; HL-60.
Common to all, as to experiment: DTP human tumour cell line panel, 48 h

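These data come from cells grown in 96-well plates and exposed to compound for 48 hours at five concentrations. GI50 is the concentration that inhibits growth by half.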 Active and inactive are the calls of the source. Cut-off read from the data, not from the text of the source: active = GI50 up to about 1.1 µM and inactive = higher.

Turning to `COc1cc(C(=O)O)c([N+](=O)[O-])c(OC)c1OC`, the GI50 in the assay on MDA-N, in the assay with SF-295, in the assay with SK-MEL-28, in the assay on TK-10, with NCI-H460 and with SK-MEL-5 was > 100 µM (inactive) throughout. In addition, the GI50 in the assay on PC-3, in the assay on MCF7, in the assay with SR, in the assay with SF-268, in the assay on Malme-3M and with UACC-62 was > 100 µM (inactive) throughout. In addition, the GI50 with SN12C, with U-251, with NCI-H226, in the assay with HOP-92, in the assay with ACHN and in the assay on MOLT-4 was > 100 µM (inactive) in each case. In the assay on UO-31, the GI50 is > 100 µM (inactive).
On to `Cc1ccc(/C(C#N)=C/c2cccc([N+](=O)[O-])c2)cc1`, for which the GI50 in the assay on MDA-N was > 100 µM (inactive); in the assay with SF-295 it was 24.4 µM (inactive); in the assay on SK-MEL-28, > 100 µM (inactive); with TK-10 it was 92.5 µM (inactive); in the assay with NCI-H460, > 100 µM (inactive); with SK-MEL-5 it was > 100 µM (inactive). Also, the GI50 with PC-3 is > 100 µM (inactive); with MCF7 it was > 100 µM (inactive); with SR, > 100 µM (inactive); in the assay on SF-268, 37.2 µM (inactive); with Malme-3M, > 100 µM (inactive); with UACC-62 it was 71.1 µM (inactive). The GI50 in the assay with SN12C is > 100 µM (inactive); in the assay on U-251, 46.7 µM (inactive); in the assay with NCI-H226 it was > 100 µM (inactive); with HOP-92, 32.2 µM (inactive); in the assay with ACHN it was > 100 µM (inactive); in the assay on UO-31 it was 45.3 µM (inactive).
In the case of `COC1(OC)C2(Cl)CCC1(Cl)C(OC(C)=O)C2` (centres undefined), the GI50 in the assay with MDA-N, with SF-295, in the assay on SK-MEL-28, with TK-10, in the assay with NCI-H460 and with SK-MEL-5 was > 100 µM (inactive) in each case. Also, the GI50 with PC-3 was > 100 µM (inactive); in the assay on MCF7, > 100 µM (inactive); with SR, > 100 µM (inactive); with SF-268 it was > 100 µM (inactive); in the assay on Malme-3M, > 100 µM (inactive); with UACC-62, > 90.2 µM (inactive). Also, the GI50 in the assay on SN12C, with U-251, in the assay with NCI-H226, in the assay with HOP-92, with ACHN and in the assay with MOLT-4 was > 100 µM (inactive) in each case. Besides, the GI50 in the assay on UO-31 was > 100 µM (inactive).
For `Cc1ccc(C2SCC(=O)N2NC(=O)c2ccncc2)s1` (centres undefined), the GI50 in the assay on MDA-N, in the assay with SF-295, in the assay with SK-MEL-28, in the assay on TK-10, in the assay on SK-MEL-5 and in the assay on PC-3 was > 100 µM (inactive) throughout. For the same compound, the GI50 with MCF7, in the assay on SR, in the assay with SF-268, in the assay with Malme-3M, in the assay on UACC-62 and in the assay with SN12C was > 100 µM (inactive) each time. Further, the GI50 in the assay with U-251, with NCI-H226, in the assay on HOP-92, in the assay with ACHN, in the assay with MOLT-4 and in the assay on UO-31 was > 100 µM (inactive) throughout.
In the case of `CCOC(=O)C1=C(C)N(c2ccc(Cl)cc2)C2(O)C=CC(=O)C3C(=O)N(c4ccccc4)C(=O)C132` (centres undefined), the GI50 is 2.35 µM (inactive) in the assay with MDA-N; 2.19 µM (inactive) in the assay with SF-295; 1.51 µM (inactive) with SK-MEL-28; 1.8 µM (inactive) in the assay with TK-10; 2.3 µM (inactive) with NCI-H460; 1.6 µM (inactive) with SK-MEL-5. The GI50 in the assay on PC-3 is 1.5 µM (inactive); in the assay on MCF7 it was 1.62 µM (inactive); in the assay with SR, 0.292 µM (active); in the assay with SF-268, 1.76 µM (inactive); in the assay with Malme-3M, 1.66 µM (inactive); with UACC-62 it was 1.59 µM (inactive). In addition, the GI50 with SN12C was 2.3 µM (inactive); in the assay on U-251, 1.87 µM (inactive); in the assay on HOP-92, 0.0649 µM (active); with ACHN, 1.59 µM (inactive); with HL-60, 2.76 µM (inactive); in the assay on MOLT-4, 1.6 µM (inactive). For the same compound, the GI50 in the assay on UO-31 is 1.6 µM (inactive).
As for `O=C(CSc1nc2ccc(I)cc2c(=O)n1Cc1ccccc1)NN1C(=O)CCC1=O`, the GI50 with MDA-N was 83.4 µM (inactive); in the assay on SF-295, 37.9 µM (inactive); in the assay with SK-MEL-28, 61.4 µM (inactive); with TK-10, 84.5 µM (inactive); in the assay on NCI-H460, 63.8 µM (inactive); in the assay on SK-MEL-5, 48.4 µM (inactive). Further, the GI50 with PC-3 is 30.1 µM (inactive); with MCF7, 41.5 µM (inactive); in the assay on SR, 31.9 µM (inactive); in the assay with SF-268, 39.1 µM (inactive); in the assay with UACC-62, 55.7 µM (inactive); in the assay with SN12C it was 35.7 µM (inactive). The GI50 in the assay with U-251 was 41.2 µM (inactive); with NCI-H226 it was 27.3 µM (inactive); with HOP-92, 25.5 µM (inactive); with ACHN it was 18.2 µM (inactive); in the assay with HL-60 it was 28.6 µM (inactive); in the assay on MOLT-4, 42.1 µM (inactive).
As to `O=C(O)c1ccc(NS(=O)(=O)Cc2ccccc2)cc1`, the GI50 with MDA-N, in the assay with SF-295, in the assay on SK-MEL-28, with TK-10, in the assay on NCI-H460 and in the assay on SK-MEL-5 was > 100 µM (inactive) each time. For the same compound, the GI50 in the assay with PC-3, in the assay on MCF7, in the assay with SR, with SF-268, in the assay with Malme-3M and in the assay with UACC-62 was > 100 µM (inactive) each time. Moreover, the GI50 in the assay with SN12C, in the assay with U-251, in the assay on HOP-92, with ACHN, in the assay with HL-60 and with MOLT-4 was > 100 µM (inactive) throughout. Also, the GI50 in the assay with UO-31 is > 100 µM (inactive).
In the case of `OCCCCn1cc(Cn2ncc3c(O)ncnc32)nn1`, the GI50 in the assay with MDA-N, in the assay on SF-295, with SK-MEL-28, in the assay with TK-10, in the assay on NCI-H460 and in the assay with SK-MEL-5 was > 100 µM (inactive) each time. Further, the GI50 in the assay on PC-3, in the assay with MCF7, in the assay with SR, in the assay with SF-268, with Malme-3M and in the assay with UACC-62 was > 100 µM (inactive) each time. Besides, the GI50 in the assay on SN12C, with U-251, with NCI-H226, with HOP-92, in the assay on ACHN and in the assay on MOLT-4 was > 100 µM (inactive) each time. Further, in the assay with UO-31, the GI50 was > 100 µM (inactive).

These data come from ChEMBL document CHEMBL1201862, “PubChem BioAssay data set” (2004).
